Source: PubChem BioAssay AID220 (DTP/NCI, 2004)
Where “and” joins values, the source holds several entries; their conditions need not be identical. Equal values may be shown once. Inconclusive results are not listed. Residues, ends and D or L forms follow the SMILES beside them. *: point of attachment. Trt = c1ccc(C(c2ccccc2)(c2ccccc2)*)cc1; Cbz = O=C(OCc1ccccc1)*; Bn = c1ccc(C*)cc1; βAla = NCCC(=O)O

Tested on: CD8F1 mice, subcutaneous mammary adenocarcinoma, T/C%
Assay: NCI In Vivo Anticancer Drug Screen. Data for tumor model Mammary Adenocarcinoma CD8F1 (subcutaneous) in CD8F1
Conditions: higher = larger tumour
How it was run: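 Transplantable tumors were established in mice, animals were dosed with compound or vehicle, and survival or tumor size was then measured in both groups. The treated result was divided by the control result.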

[1] = endpoint: median tumor weight (est.), dose: 6.25 mg/kg/injection, schedule: Q07DX005 (ip), vehicle: Klucel (hydroxypropylcellulose) (HPC)
[2] = endpoint: median tumor weight (est.), dose: 12.5 mg/kg/injection, schedule: Q07DX005 (ip), vehicle: Klucel (hydroxypropylcellulose) (HPC)
[3] = endpoint: median tumor weight (est.), dose: 25.0 mg/kg/injection, schedule: Q07DX005 (ip), vehicle: Klucel (hydroxypropylcellulose) (HPC)
[4] = endpoint: median tumor weight (est.), dose: 50.0 mg/kg/injection, schedule: Q07DX005 (ip), vehicle: Klucel (hydroxypropylcellulose) (HPC)
[5] = endpoint: median tumor weight (est.), dose: 100.0 mg/kg/injection, schedule: Q07DX005 (ip), vehicle: Klucel (hydroxypropylcellulose) (HPC)
[6] = endpoint: median tumor weight (est.), dose: 6.25 mg/kg/injection, schedule: Q07DX005 (ip), vehicle: saline with Tween-80
[7] = endpoint: median tumor weight (est.), dose: 12.5 mg/kg/injection, schedule: Q07DX005 (ip), vehicle: saline with Tween-80
[8] = endpoint: median tumor weight (est.), dose: 50.0 mg/kg/injection, schedule: Q07DX005 (ip), vehicle: saline with Tween-80

## COc1cccc2c1C(=O)c1c(O)c3c(c(O)c1C2=O)C[C@@](O)(/C(CO)=N/NC(=O)c1ccc(Cl)c(Cl)c1)C[C@@H]3OC1CC(N)C(O)C(C)O1 (some centres undefined)
endpoint: mean tumor weight, dose: 0.75 mg/kg/injection, schedule: Q07DX005 (ip), vehicle: saline
  T/C: 106 % of control
endpoint: mean tumor weight, dose: 1.5 mg/kg/injection, schedule: Q07DX005 (ip), vehicle: saline
  T/C: 161 % of control
endpoint: mean tumor weight, dose: 1.5 mg/kg/injection, schedule: Q07DX006 (ip), vehicle: saline
  T/C: 118 % of control
endpoint: mean tumor weight, dose: 3.0 mg/kg/injection, schedule: Q07DX005 (ip), vehicle: saline
  T/C: 75 % of control
endpoint: mean tumor weight, dose: 3.0 mg/kg/injection, schedule: Q07DX006 (ip), vehicle: saline
  T/C: 71 % of control
endpoint: mean tumor weight, dose: 4.0 mg/kg/injection, schedule: Q07DX004 (ip), vehicle: saline
  T/C: 86 % of control
endpoint: mean tumor weight, dose: 8.0 mg/kg/injection, schedule: Q07DX004 (ip), vehicle: saline
  T/C: 96 % of control
endpoint: mean tumor weight, dose: 12.0 mg/kg/injection, schedule: Q07DX005 (ip), vehicle: saline
  T/C: 30 % of control
endpoint: mean tumor weight, dose: 12.0 mg/kg/injection, schedule: Q07DX006 (ip), vehicle: saline
  T/C: 32 % of control
endpoint: mean tumor weight, dose: 16.0 mg/kg/injection, schedule: Q07DX004 (ip), vehicle: saline
  T/C: 17 % of control
endpoint: median tumor weight (est.), dose: 2.0 mg/kg/injection, schedule: Q07DX005 (ip), vehicle: suspension in saline
  T/C: 60 % of control
endpoint: median tumor weight (est.), dose: 4.0 mg/kg/injection, schedule: Q07DX005 (ip), vehicle: suspension in saline
  T/C: 150 % of control
endpoint: median tumor weight (est.), dose: 8.0 mg/kg/injection, schedule: Q07DX005 (ip), vehicle: suspension in saline
  T/C: 41 % of control
endpoint: median tumor weight (est.), dose: 16.0 mg/kg/injection, schedule: Q07DX005 (ip), vehicle: suspension in saline
  T/C: 25 % of control

## CS(=O)(=O)OCCN(CCOS(C)(=O)=O)c1ccc(C=Nc2ccc(-c3csc(COc4ccccc4)n3)cc2)cc1
[1]
  T/C: 88 % of control
[2]
  T/C: 97 % of control and 103 % of control
[3]
  T/C: 75 % of control and 79 % of control
[4]
  T/C: 83 % of control
[5]
  T/C: 27 % of control and 44 % of control

## OC1CCCC2CCCNC12 (centres undefined)
[6]
  T/C: 206 % of control
[7]
  T/C: 102 % of control
endpoint: median tumor weight (est.), dose: 25.0 mg/kg/injection, schedule: Q07DX005 (ip), vehicle: saline with Tween-80
  T/C: 171 % of control
[8]
  T/C: 73 % of control

## NC(=O)/C=C/C(=O)c1c(Cl)cccc1Cl
endpoint: median tumor weight change, dose: 1.5 mg/kg/injection, schedule: Q01DX001 (ip), vehicle: saline with Tween-80
  T/C: 110 % of control
endpoint: median tumor weight change, dose: 3.0 mg/kg/injection, schedule: Q01DX001 (ip), vehicle: saline with Tween-80
  T/C: 85 % of control
endpoint: median tumor weight change, dose: 6.0 mg/kg/injection, schedule: Q01DX001 (ip), vehicle: saline with Tween-80
  T/C: 100 % of control
endpoint: median tumor weight change, dose: 12.0 mg/kg/injection, schedule: Q01DX001 (ip), vehicle: saline with Tween-80
  T/C: 90 % of control
endpoint: median tumor weight change, dose: 12.5 mg/kg/injection, schedule: Q01DX001 (ip), vehicle: saline with Tween-80
  T/C: 71 % of control
endpoint: median tumor weight change, dose: 50.0 mg/kg/injection, schedule: Q01DX001 (ip), vehicle: saline with Tween-80
  T/C: 104 % of control
endpoint: median tumor weight change, dose: 100.0 mg/kg/injection, schedule: Q01DX001 (ip), vehicle: saline with Tween-80
  T/C: 55 % of control

## COC(=O)C(CSC(c1ccccc1)(c1ccccc1)c1ccccc1)NC(=O)C(CSCc1ccccc1)NC(=O)CCNC(=O)OCc1ccccc1 (centres undefined) ({Cbz-βAla}-Cys(Bn)-Cys(Trt)-OMe; configuration not given here)
endpoint: median tumor weight change, dose: 250.0 mg/kg/injection, schedule: Q01DX001 (ip), vehicle: Klucel (hydroxypropylcellulose) (HPC)
  T/C: 107 % of control
endpoint: median tumor weight change, dose: 500.0 mg/kg/injection, schedule: Q01DX001 (ip), vehicle: Klucel (hydroxypropylcellulose) (HPC)
  T/C: 95 % of control
endpoint: median tumor weight change, dose: 1000.0 mg/kg/injection, schedule: Q01DX001 (ip), vehicle: Klucel (hydroxypropylcellulose) (HPC)
  T/C: 90 % of control
endpoint: median tumor weight change, dose: 2000.0 mg/kg/injection, schedule: Q01DX001 (ip), vehicle: Klucel (hydroxypropylcellulose) (HPC)
  T/C: 84 % of control

## CCCCCCCC(=O)[O][Hg][CH2]C1COC([CH2][Hg][O]C(=O)CCCCCCC)CO1 (centres undefined)
endpoint: median tumor weight (est.), dose: 3.0 mg/kg/injection, schedule: Q07DX005 (ip), vehicle: saline with Tween-80
  T/C: 90 % of control
endpoint: median tumor weight (est.), dose: 6.0 mg/kg/injection, schedule: Q07DX005 (ip), vehicle: saline with Tween-80
  T/C: 95 % of control
[6]
  T/C: 100 % of control
endpoint: median tumor weight (est.), dose: 12.0 mg/kg/injection, schedule: Q07DX005 (ip), vehicle: saline with Tween-80
  T/C: 80 % of control
[7]
  T/C: 50 % of control
[8]
  T/C: 100 % of control

## CCC1(O)CC2CN(CCc3c([nH]c4ccccc34)C(C(=O)OC)(c3cc4c(cc3OC)N(C)C3C(O)(C(N)=O)C(O)C5(CC)C=CCN6CCC43C65)C2)C1 (centres undefined) (tested in a mixture with another compound)
endpoint: median tumor weight (est.), dose: 0.12 mg/kg/injection, schedule: Q07DX005 (ip), vehicle: saline
  T/C: 87 % of control
endpoint: median tumor weight (est.), dose: 0.25 mg/kg/injection, schedule: Q07DX005 (ip), vehicle: saline
  T/C: 74 % of control
endpoint: median tumor weight (est.), dose: 0.5 mg/kg/injection, schedule: Q07DX005 (ip), vehicle: saline
  T/C: 51 % of control
endpoint: median tumor weight (est.), dose: 1.0 mg/kg/injection, schedule: Q07DX005 (ip), vehicle: saline
  T/C: 16 % of control

## COc1cc2c[n+](C)c3c4cc5c(cc4ccc3c2cc1OC)OCO5
endpoint: median tumor weight (est.), dose: 10.0 mg/kg/injection, schedule: Q07DX005 (ip), vehicle: saline with Tween-80
  T/C: 78 % of control
endpoint: median tumor weight (est.), dose: 40.0 mg/kg/injection, schedule: Q07DX005 (ip), vehicle: saline with Tween-80
  T/C: 31 % of control
endpoint: median tumor weight (est.), dose: 80.0 mg/kg/injection, schedule: Q07DX005 (ip), vehicle: saline with Tween-80
  T/C: 4 % of control

## N=C1CCCS1
endpoint: median tumor weight change, dose: 125.0 mg/kg/injection, schedule: Q01DX001 (ip), vehicle: saline
  T/C: 93 % of control
endpoint: median tumor weight change, dose: 250.0 mg/kg/injection, schedule: Q01DX001 (ip), vehicle: saline
  T/C: 89 % of control

## O=C1NCCN1c1ncc([N+](=O)[O-])s1
endpoint: mean tumor weight, dose: 100.0 mg/kg/injection, schedule: Q07DX005 (ip), vehicle: saline
  T/C: 121 % of control
endpoint: mean tumor weight, dose: 200.0 mg/kg/injection, schedule: Q07DX005 (ip), vehicle: saline
  T/C: 89 % of control
endpoint: mean tumor weight, dose: 400.0 mg/kg/injection, schedule: Q07DX005 (ip), vehicle: saline
  T/C: 101 % of control

## C[CH2][Sn]([CH2]C)([CH2]C(=O)OC)[CH2]C(=O)OC
endpoint: median tumor weight change, dose: 16.0 mg/kg/injection, schedule: Q01DX001 (ip), vehicle: saline with Tween-80
  T/C: 78 % of control

## COc1ccc(Cl)[n+]([O-])n1
endpoint: median tumor weight change, dose: 125.0 mg/kg/injection, schedule: Q01DX001 (ip), vehicle: Klucel (hydroxypropylcellulose) (HPC)
  T/C: 79 % of control

## CCc1ncnc2cc(OCC3CO3)c(OC)cc12 (centres undefined)
endpoint: median tumor weight change, dose: 25.0 mg/kg/injection, schedule: Q01DX001 (ip), vehicle: suspension in saline
  T/C: 118 % of control
endpoint: median tumor weight change, dose: 50.0 mg/kg/injection, schedule: Q01DX001 (ip), vehicle: suspension in saline
  T/C: 110 % of control
endpoint: median tumor weight change, dose: 100.0 mg/kg/injection, schedule: Q01DX001 (ip), vehicle: suspension in saline
  T/C: 35 % of control
endpoint: median tumor weight change, dose: 400.0 mg/kg/injection, schedule: Q01DX001 (ip), vehicle: suspension in saline
  T/C: 93 % of control

## CCCCCC[C@H]([C@H](C)O)n1cnc2c(N)ncnc21
[2]
  T/C: 60 % of control
[3]
  T/C: 305 % of control
[4]
  T/C: 206 % of control and 84 % of control
[5]
  T/C: 106 % of control
endpoint: median tumor weight change, dose: 50.0 mg/kg/injection, schedule: Q01DX001 (ip), vehicle: Klucel (hydroxypropylcellulose) (HPC)
  T/C: 68 % of control
endpoint: median tumor weight change, dose: 100.0 mg/kg/injection, schedule: Q01DX001 (ip), vehicle: Klucel (hydroxypropylcellulose) (HPC)
  T/C: 106 % of control
endpoint: median tumor weight change, dose: 200.0 mg/kg/injection, schedule: Q01DX001 (ip), vehicle: Klucel (hydroxypropylcellulose) (HPC)
  T/C: 79 % of control

## O=C(Nc1ccc(Cl)c(Cl)c1)Nc1c(Oc2ccc(Cl)c(Cl)c2)ccc(Cl)c1S(=O)(=O)O
[1]
  T/C: 114 % of control
endpoint: median tumor weight (est.), dose: 6.25 mg/kg/injection, schedule: Q07DX005 (ip), vehicle: saline
  T/C: 78 % of control
[2]
  T/C: 244 % of control
endpoint: median tumor weight (est.), dose: 12.5 mg/kg/injection, schedule: Q07DX005 (ip), vehicle: saline
  T/C: 123 % of control
[3]
  T/C: 110 % of control
endpoint: median tumor weight (est.), dose: 25.0 mg/kg/injection, schedule: Q07DX005 (ip), vehicle: saline
  T/C: 123 % of control
[4]
  T/C: 318 % of control
[5]
  T/C: 65 % of control
endpoint: median tumor weight (est.), dose: 100.0 mg/kg/injection, schedule: Q07DX005 (ip), vehicle: saline
  T/C: 121 % of control
endpoint: median tumor weight (est.), dose: 200.0 mg/kg/injection, schedule: Q07DX005 (ip), vehicle: Klucel (hydroxypropylcellulose) (HPC)
  T/C: 323 % of control
endpoint: median tumor weight (est.), dose: 200.0 mg/kg/injection, schedule: Q07DX005 (ip), vehicle: saline
  T/C: 114 % of control

## CC1(C)CC2(C)OC2C2(C1)N=NC(=Nc1ccccc1)O2 (centres undefined)
endpoint: median tumor weight change, dose: 125.0 mg/kg/injection, schedule: Q01DX001 (ip), vehicle: saline with Tween-80
  T/C: 78 % of control
endpoint: median tumor weight change, dose: 250.0 mg/kg/injection, schedule: Q01DX001 (ip), vehicle: saline with Tween-80
  T/C: 64 % of control
endpoint: median tumor weight change, dose: 500.0 mg/kg/injection, schedule: Q01DX001 (ip), vehicle: saline with Tween-80
  T/C: 41 % of control
